Measurements published in paper PMC10818749, “Toxicity Studies of Cardiac-Targeting Peptide Reveal a Robust Safety Profile” (Pharmaceutics, 2024).
Ends that are not written are not given here.

Assays:
ADRA2A = target: T1, ADRA2A (Homo sapiens, UniProt P08913); experiment: ADRA2A GPCR cAMP modulation assay; format: cell-based; conditions: compared to the controls
T1 construct: host or cells: cAMP Hunter cell line
Description: GPCR cAMP Modulation Assays: cAMP Hunter cell lines were grown, plated, and subjected to Eurofins’ DiscoverX HitHunter cAMP XS+ assay. Gs agonist activity, Gi agonist activity, and antagonist activity-induced assays were read using chemiluminescent signal detection. The percentage of activity was calculated for Gs and Gi agonist assays, and the percentage of inhibition was calculated for Gs antagonist assays. […]
cAMP Second ary Messenger Assay pound results in the release of calcium from intracellular stores and DiscoverX has developed a panel of cell lines stably expressing non- an increase in dye fluorescence that is measured in real-time. tagged GPCRs that endogenously signal through cAMP. […]
The enzyme is split into two complementary portions: Enzyme Ac-ceptor (EA) and Enzyme Donor (ED). […] Active enzyme can then convert a chemilumines-cent substrate, generating an output signal detectable on a standard The NHR is tagged with the ProLink™ (PK) component of our EFC microplate reader. assay system, and the SRCP domain is fused to the Enzyme Ac-ceptor component (EA) expressed in the nucleus. […]

HEK-Nav1.5 (Peak) = HEK-Nav1.5 (Peak) (Homo sapiens, UniProt Q14524); experiment: hNav1.5 (Peak) Sodium Channel Assay - Qube APC; conditions: CTP 0.1 to 30 µM; HEK cells; peak current, step to -15mV; 0.1% Pluronic F-68
[1] = test system: human left ventricular myocyte cell line; experiment: Fluorescence-activated cell sorting (FACS) live-dead viability; format: cell-based; conditions: 10 µM, 30 min incubation, live-dead stain, biological triplicates and technical quadruplicates (n = 4), vs no treatment or vehicle
Description: Fluorescence-Activated Cell Sorting Assays: CTP was tested in a human left ventricular myocyte cell line (Celprogen, Torrance, CA, USA; cat #36044-15) for uptake and assessment of its effects on cell viability. Cells were plated onto 6-well plates at a density of 100,000 cells per well and incubated overnight at 37 °C/5% CO2. The following day media was replaced with fresh media containing 10 µM CTP-Cy5.5, or a random (RAN-CY5.5) peptide. A yellow live-dead stain (Invitrogen, Carlsbad, CA, USA; cat #L34968) was added to all wells, including the negative control or vehicle only treated controls, and cells were incubated for 30 min, after which media aspirated, cells washed 3× with pre-warmed phosphate-buffered saline (PBS), trypsinized, and collected. After collection, cells were washed once with PBS, fixed with 2% paraformaldehyde at room temperature for 10 min, washed once again and resuspended in 1000 µL of PBS. Fluorescence activated cell sorting (FACS) was performed using lasers selected for live-dead and Cy5.5 fluorophores, and 10,000 cells counted in Fortessa. The data generated were gated on the presence of the live-dead stain providing the percent viability of cells [(live/(live + dead cells)) × 100] after treatment with various peptides.

Sequence of HEK-Nav1.5 (Peak) (Q14524 whole entry): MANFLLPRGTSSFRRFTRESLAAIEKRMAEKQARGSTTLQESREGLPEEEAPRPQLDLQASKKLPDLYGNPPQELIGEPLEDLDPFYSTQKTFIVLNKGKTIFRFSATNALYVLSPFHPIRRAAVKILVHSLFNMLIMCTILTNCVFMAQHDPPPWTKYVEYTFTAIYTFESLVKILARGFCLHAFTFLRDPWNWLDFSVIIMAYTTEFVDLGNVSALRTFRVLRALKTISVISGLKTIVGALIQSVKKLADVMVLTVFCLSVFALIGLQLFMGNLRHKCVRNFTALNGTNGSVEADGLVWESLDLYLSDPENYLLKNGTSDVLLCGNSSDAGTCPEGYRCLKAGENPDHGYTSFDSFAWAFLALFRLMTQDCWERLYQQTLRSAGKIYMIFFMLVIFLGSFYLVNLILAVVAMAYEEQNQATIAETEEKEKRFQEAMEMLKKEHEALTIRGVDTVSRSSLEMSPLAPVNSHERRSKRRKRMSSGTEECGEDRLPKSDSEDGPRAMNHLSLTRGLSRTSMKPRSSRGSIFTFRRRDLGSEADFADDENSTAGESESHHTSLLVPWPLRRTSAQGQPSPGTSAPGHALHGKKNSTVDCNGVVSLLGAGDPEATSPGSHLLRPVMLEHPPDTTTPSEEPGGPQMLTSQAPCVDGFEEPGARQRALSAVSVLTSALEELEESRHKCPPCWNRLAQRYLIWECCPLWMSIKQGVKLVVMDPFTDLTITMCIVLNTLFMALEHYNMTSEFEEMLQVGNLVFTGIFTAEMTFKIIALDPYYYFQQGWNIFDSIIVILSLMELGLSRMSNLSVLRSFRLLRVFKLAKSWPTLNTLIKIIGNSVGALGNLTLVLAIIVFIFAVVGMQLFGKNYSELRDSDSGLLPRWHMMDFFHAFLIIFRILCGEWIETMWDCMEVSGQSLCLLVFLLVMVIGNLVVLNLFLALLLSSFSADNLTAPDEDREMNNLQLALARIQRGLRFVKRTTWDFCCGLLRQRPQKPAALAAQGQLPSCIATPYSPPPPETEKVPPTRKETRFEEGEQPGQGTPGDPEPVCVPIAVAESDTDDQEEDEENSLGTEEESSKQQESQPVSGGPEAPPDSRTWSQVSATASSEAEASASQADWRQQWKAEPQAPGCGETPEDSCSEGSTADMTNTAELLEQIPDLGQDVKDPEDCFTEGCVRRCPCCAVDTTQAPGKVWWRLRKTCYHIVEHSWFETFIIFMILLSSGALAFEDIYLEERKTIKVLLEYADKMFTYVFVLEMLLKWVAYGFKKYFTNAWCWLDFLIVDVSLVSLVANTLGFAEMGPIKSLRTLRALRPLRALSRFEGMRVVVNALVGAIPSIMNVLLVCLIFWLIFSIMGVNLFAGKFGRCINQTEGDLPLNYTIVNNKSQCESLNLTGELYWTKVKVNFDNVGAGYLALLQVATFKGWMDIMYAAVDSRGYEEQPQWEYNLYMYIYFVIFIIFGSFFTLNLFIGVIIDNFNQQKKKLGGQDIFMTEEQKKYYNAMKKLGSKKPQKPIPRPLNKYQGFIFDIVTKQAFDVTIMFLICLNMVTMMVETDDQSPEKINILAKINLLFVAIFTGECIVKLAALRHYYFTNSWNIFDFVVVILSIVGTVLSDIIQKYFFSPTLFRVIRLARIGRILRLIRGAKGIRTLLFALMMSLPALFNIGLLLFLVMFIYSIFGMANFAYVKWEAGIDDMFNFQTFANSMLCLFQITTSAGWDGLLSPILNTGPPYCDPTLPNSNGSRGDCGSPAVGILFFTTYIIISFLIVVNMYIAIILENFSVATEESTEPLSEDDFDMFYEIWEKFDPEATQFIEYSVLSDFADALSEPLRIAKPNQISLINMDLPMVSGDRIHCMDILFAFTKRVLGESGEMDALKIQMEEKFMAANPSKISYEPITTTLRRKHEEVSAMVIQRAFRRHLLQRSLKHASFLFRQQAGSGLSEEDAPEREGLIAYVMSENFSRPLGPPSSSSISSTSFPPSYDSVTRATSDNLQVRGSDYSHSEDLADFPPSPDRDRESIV
T1 sequence (P08913 whole entry): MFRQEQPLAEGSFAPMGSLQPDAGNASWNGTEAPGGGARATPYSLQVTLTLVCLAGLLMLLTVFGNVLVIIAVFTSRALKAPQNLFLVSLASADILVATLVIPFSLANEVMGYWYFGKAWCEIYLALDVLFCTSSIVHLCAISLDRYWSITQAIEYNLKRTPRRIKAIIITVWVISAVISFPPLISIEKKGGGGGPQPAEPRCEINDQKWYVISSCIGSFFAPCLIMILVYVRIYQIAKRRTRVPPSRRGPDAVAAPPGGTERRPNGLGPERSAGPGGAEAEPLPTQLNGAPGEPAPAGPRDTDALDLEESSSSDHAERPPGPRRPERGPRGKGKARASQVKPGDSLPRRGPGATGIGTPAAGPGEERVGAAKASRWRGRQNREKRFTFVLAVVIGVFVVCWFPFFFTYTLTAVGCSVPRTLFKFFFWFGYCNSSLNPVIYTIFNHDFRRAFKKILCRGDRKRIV

## APWHLSSQYSRT [CTP]
ADRA2A
  agonist or antagonist action: no significant action as either an agonist or antagonist
HEK-Nav1.5 (Peak)
  Estimated IC50: N/C (Not calculable, inhibition >25% was not observed.)
[1]
  cell viability: remained unchanged
